What was measured:
Type in all cases: functional, cell-based
HuTu80 = test: Inhibition of cell growth against HuTu 80 human gastrointestinal adenocarcinoma cell lines in vitro
HT-29 = test: Inhibition of cell growth against HT-29 human gastrointestinal adenocarcinoma cell lines in vitro
SW480 = test: Inhibition of cell growth against SW480 human gastrointestinal adenocarcinoma cell lines in vitro
WiDr = test: Inhibition of cell growth against WIDR human gastrointestinal adenocarcinoma cell lines in vitro

SMILES | IC50 (HuTu80) | IC50 (HT-29) | IC50 (SW480) | IC50 (WiDr)
Cc1c(NCc2ccc(C(=O)NC(CCC(=O)O)C(=O)O)cc2)ccc2nc(N)nc(O)c12 (stereo unspecified) | 4000 nM |  |  | 
Cc1c(CNc2ccc(C(=O)NC(CCC(=O)O)C(=O)O)cc2)ccc2nc(N)nc(N)c12 (stereo unspecified) | 3.4 nM | 3 nM | 5 nM | 5 nM
Nc1nc(=O)c2cc(NCc3ccc(C(=O)NC(CCC(=O)O)C(=O)O)cc3)ccc2[nH]1 (stereo unspecified) | 4500 nM | 1700 nM | 4500 nM | 4200 nM
Cc1c(NCc2ccc(C(=O)NC(CCC(=O)O)C(=O)O)cc2)ccc2nc(N)nc(N)c12 (stereo unspecified) | 47 nM | 60 nM | 56 nM | 71 nM
Nc1nc(N)c2c(Cl)c(CNc3ccc(C(=O)NC(CCC(=O)O)C(=O)O)cc3)ccc2n1 (stereo unspecified) | 1.9 nM | 2.3 nM | 2 nM | 2.1 nM
Nc1nc(N)c2c(Cl)c(NCc3ccc(C(=O)NC(CCC(=O)O)C(=O)O)cc3)ccc2n1 (stereo unspecified) | 22 nM | 25 nM | 20 nM | 24 nM
Nc1nc(O)c2c(Cl)c(NCc3ccc(C(=O)NC(CCC(=O)O)C(=O)O)cc3)ccc2n1 (stereo unspecified) | 8500 nM | 6700 nM | 38000 nM | 11000 nM
CN(Cc1cnc2nc(N)nc(N)c2n1)c1ccc(C(=O)N[C@@H](CCC(=O)O)C(=O)O)cc1 [METHOTREXATE] | 9 nM |  |  | 

Source: ChEMBL document CHEMBL1123821, “Synthesis of 5-chloro-5,8-dideaza analogues of folic acid and aminopterin targeted for colon adenocarcinoma” (J Med Chem, 1987)
